Measurements taken from ChEMBL document CHEMBL4680298, “2-Aryl-3-(6-trifluoromethoxy)benzo[d]thiazole-based thiazolidinone hybrids as potential anti-infective agents: Synthesis, biological evaluation and molecular docking studies” (2021).
Values after ≈ are worked out from the molar mass of the structure shown.

Experiments:
Escherichia coli [1] = assay: Anti-infective activity against resistant Escherichia coli assessed as reduction in bacterial growth by microdilution method; type: functional
Listeria monocytogenes = assay: Anti-infective activity against Listeria monocytogenes NCTC 7973 assessed as reduction in bacterial growth by microdilution method; type: functional
Pseudomonas aeruginosa [2] = assay: Anti-infective activity against Pseudomonas aeruginosa ATCC 27853 assessed as reduction in bacterial growth by microdilution method; type: functional
Pseudomonas aeruginosa [3] = assay: Anti-infective activity against Pseudomonas aeruginosa PAO1 assessed as reduction in bacterial growth by microdilution method; type: functional
Staphylococcus aureus [4] = assay: Anti-infective activity against methicillin resistance Staphylococcus aureus assessed as reduction in bacterial growth by microdilution method; type: functional
Escherichia coli [5] = assay: Anti-infective activity against Escherichia coli ATCC 35210 assessed as reduction in bacterial growth by microdilution method; type: functional
Staphylococcus aureus [6] = assay: Anti-infective activity against Staphylococcus aureus ATCC 6538 assessed as reduction in bacterial growth by microdilution method; type: functional
Salmonella typhimurium = assay: Anti-infective activity against Salmonella typhimurium ATCC 13311 assessed as reduction in bacterial growth by microdilution method; type: functional, Salmonella enterica subsp. enterica serovar Typhimurium; conditions: Salmonella enterica

| SMILES | MBC (Escherichia coli [1]) | MIC (Escherichia coli [1]) | MBC (Listeria monocytogenes) | MIC (Listeria monocytogenes) | MBC (Pseudomonas aeruginosa [2]) | MIC (Pseudomonas aeruginosa [2]) | MBC (Pseudomonas aeruginosa [3]) | MIC (Pseudomonas aeruginosa [3]) | MBC (Staphylococcus aureus [4]) | MIC (Staphylococcus aureus [4]) | MBC (Escherichia coli [5]) | MIC (Escherichia coli [5]) | MBC (Staphylococcus aureus [6]) | MIC (Staphylococcus aureus [6]) | MBC (Salmonella typhimurium) | MIC (Salmonella typhimurium) |
| --- | --- | --- | --- | --- | --- | --- | --- | --- | --- | --- | --- | --- | --- | --- | --- | --- |
| O=C1CSC(c2ccc([N+](=O)[O-])cc2)N1c1nc2ccc(OC(F)(F)F)cc2s1 (racemic) | 500 µg/mL (≈ 1130 µM) | 250 µg/mL (≈ 566 µM) | 500 µg/mL (≈ 1130 µM) | 250 µg/mL (≈ 566 µM) | 500 µg/mL (≈ 1130 µM) | 250 µg/mL (≈ 566 µM) | 250 µg/mL (≈ 566 µM) | 120 µg/mL (≈ 272 µM) | 1000 µg/mL (≈ 2270 µM) | 500 µg/mL (≈ 1130 µM) | 250 µg/mL (≈ 566 µM) | 120 µg/mL (≈ 272 µM) | 500 µg/mL (≈ 1130 µM) | 250 µg/mL (≈ 566 µM) | 250 µg/mL (≈ 566 µM) | 120 µg/mL (≈ 272 µM) |
| O=C1CSC(c2cccc(Cl)c2Cl)N1c1nc2ccc(OC(F)(F)F)cc2s1 (racemic) | 250 µg/mL (≈ 537 µM) | 120 µg/mL (≈ 258 µM) | 250 µg/mL (≈ 537 µM) | 100 µg/mL (≈ 215 µM) | 500 µg/mL (≈ 1070 µM) | 250 µg/mL (≈ 537 µM) | 120 µg/mL (≈ 258 µM) | 120 µg/mL (≈ 258 µM) | 1000 µg/mL (≈ 2150 µM) | 500 µg/mL (≈ 1070 µM) | 250 µg/mL (≈ 537 µM) | 150 µg/mL (≈ 322 µM) | 250 µg/mL (≈ 537 µM) | 100 µg/mL (≈ 215 µM) | 250 µg/mL (≈ 537 µM) | 150 µg/mL (≈ 322 µM) |
| O=C1CSC(c2c(F)cccc2F)N1c1nc2ccc(OC(F)(F)F)cc2s1 (racemic) | 500 µg/mL (≈ 1160 µM) | 250 µg/mL (≈ 578 µM) | > 1000 µg/mL | > 1000 µg/mL | 500 µg/mL (≈ 1160 µM) | 250 µg/mL (≈ 578 µM) | 500 µg/mL (≈ 1160 µM) | 300 µg/mL (≈ 694 µM) | 1000 µg/mL (≈ 2310 µM) | 250 µg/mL (≈ 578 µM) | 250 µg/mL (≈ 578 µM) | 120 µg/mL (≈ 278 µM) | > 1000 µg/mL | > 1000 µg/mL | 250 µg/mL (≈ 578 µM) | 120 µg/mL (≈ 278 µM) |
| O=C1CSC(c2ccc(O)cc2)N1c1nc2ccc(OC(F)(F)F)cc2s1 (racemic) | 500 µg/mL (≈ 1210 µM) | 250 µg/mL (≈ 606 µM) | 750 µg/mL (≈ 1820 µM) | 500 µg/mL (≈ 1210 µM) | 250 µg/mL (≈ 606 µM) | 120 µg/mL (≈ 291 µM) | 500 µg/mL (≈ 1210 µM) | 300 µg/mL (≈ 727 µM) | 500 µg/mL (≈ 1210 µM) | 250 µg/mL (≈ 606 µM) | 250 µg/mL (≈ 606 µM) | 150 µg/mL (≈ 364 µM) | 750 µg/mL (≈ 1820 µM) | 500 µg/mL (≈ 1210 µM) | 250 µg/mL (≈ 606 µM) | 150 µg/mL (≈ 364 µM) |
| O=C1CSC(c2ccc(Cl)cc2Cl)N1c1nc2ccc(OC(F)(F)F)cc2s1 (racemic) | 500 µg/mL (≈ 1070 µM) | 250 µg/mL (≈ 537 µM) | 500 µg/mL (≈ 1070 µM) | 150 µg/mL (≈ 322 µM) | 500 µg/mL (≈ 1070 µM) | 250 µg/mL (≈ 537 µM) | 1000 µg/mL (≈ 2150 µM) | 250 µg/mL (≈ 537 µM) | 1000 µg/mL (≈ 2150 µM) | 500 µg/mL (≈ 1070 µM) | 250 µg/mL (≈ 537 µM) | 120 µg/mL (≈ 258 µM) | 500 µg/mL (≈ 1070 µM) | 150 µg/mL (≈ 322 µM) | 250 µg/mL (≈ 537 µM) | 120 µg/mL (≈ 258 µM) |
| O=C1CSC(c2c(Cl)cccc2Cl)N1c1nc2ccc(OC(F)(F)F)cc2s1 (racemic) | 500 µg/mL (≈ 1070 µM) | 250 µg/mL (≈ 537 µM) | 500 µg/mL (≈ 1070 µM) | 250 µg/mL (≈ 537 µM) | 500 µg/mL (≈ 1070 µM) | 250 µg/mL (≈ 537 µM) | 250 µg/mL (≈ 537 µM) | 120 µg/mL (≈ 258 µM) | 500 µg/mL (≈ 1070 µM) | 250 µg/mL (≈ 537 µM) | 250 µg/mL (≈ 537 µM) | 120 µg/mL (≈ 258 µM) | 500 µg/mL (≈ 1070 µM) | 250 µg/mL (≈ 537 µM) | 250 µg/mL (≈ 537 µM) | 120 µg/mL (≈ 258 µM) |
| O=C1CSC(c2ccc(F)cc2)N1c1nc2ccc(OC(F)(F)F)cc2s1 (racemic) | 500 µg/mL (≈ 1210 µM) | 250 µg/mL (≈ 603 µM) | 500 µg/mL (≈ 1210 µM) | 250 µg/mL (≈ 603 µM) | 500 µg/mL (≈ 1210 µM) | 250 µg/mL (≈ 603 µM) | 500 µg/mL (≈ 1210 µM) | 250 µg/mL (≈ 603 µM) | 500 µg/mL (≈ 1210 µM) | 250 µg/mL (≈ 603 µM) | 250 µg/mL (≈ 603 µM) | 150 µg/mL (≈ 362 µM) | 500 µg/mL (≈ 1210 µM) | 250 µg/mL (≈ 603 µM) | 250 µg/mL (≈ 603 µM) | 150 µg/mL (≈ 362 µM) |
| O=C1CSC(c2ccc(Cl)cc2)N1c1nc2ccc(OC(F)(F)F)cc2s1 (racemic) | 250 µg/mL (≈ 580 µM) | 120 µg/mL (≈ 279 µM) | 500 µg/mL (≈ 1160 µM) | 250 µg/mL (≈ 580 µM) | 500 µg/mL (≈ 1160 µM) | 250 µg/mL (≈ 580 µM) | 250 µg/mL (≈ 580 µM) | 200 µg/mL (≈ 464 µM) | 750 µg/mL (≈ 1740 µM) | 250 µg/mL (≈ 580 µM) | 250 µg/mL (≈ 580 µM) | 120 µg/mL (≈ 279 µM) | 500 µg/mL (≈ 1160 µM) | 250 µg/mL (≈ 580 µM) | 250 µg/mL (≈ 580 µM) | 120 µg/mL (≈ 279 µM) |
| COc1ccc(C2SCC(=O)N2c2nc3ccc(OC(F)(F)F)cc3s2)cc1 (racemic) | 500 µg/mL (≈ 1170 µM) | 250 µg/mL (≈ 586 µM) | 500 µg/mL (≈ 1170 µM) | 250 µg/mL (≈ 586 µM) | 500 µg/mL (≈ 1170 µM) | 250 µg/mL (≈ 586 µM) | 250 µg/mL (≈ 586 µM) | 120 µg/mL (≈ 281 µM) | 1000 µg/mL (≈ 2340 µM) | 500 µg/mL (≈ 1170 µM) | 500 µg/mL (≈ 1170 µM) | 250 µg/mL (≈ 586 µM) | 500 µg/mL (≈ 1170 µM) | 250 µg/mL (≈ 586 µM) | 500 µg/mL (≈ 1170 µM) | 250 µg/mL (≈ 586 µM) |
| O=C1CSC(c2c(F)cccc2Cl)N1c1nc2ccc(OC(F)(F)F)cc2s1 (racemic) | 500 µg/mL (≈ 1110 µM) | 250 µg/mL (≈ 557 µM) | 500 µg/mL (≈ 1110 µM) | 250 µg/mL (≈ 557 µM) | 1000 µg/mL (≈ 2230 µM) | 500 µg/mL (≈ 1110 µM) | 250 µg/mL (≈ 557 µM) | 120 µg/mL (≈ 267 µM) | 1000 µg/mL (≈ 2230 µM) | 500 µg/mL (≈ 1110 µM) | 500 µg/mL (≈ 1110 µM) | 250 µg/mL (≈ 557 µM) | 500 µg/mL (≈ 1110 µM) | 250 µg/mL (≈ 557 µM) | 500 µg/mL (≈ 1110 µM) | 250 µg/mL (≈ 557 µM) |
| CC1(C)S[C@@H]2[C@H](NC(=O)[C@H](N)c3ccccc3)C(=O)N2[C@H]1C(=O)O [AMPICILLIN] | – | 200 µg/mL (≈ 572 µM) | 300 µg/mL (≈ 859 µM) | 150 µg/mL (≈ 429 µM) | 150 µg/mL (≈ 429 µM) | 100 µg/mL (≈ 286 µM) | – | 200 µg/mL (≈ 572 µM) | – | – | 200 µg/mL (≈ 572 µM) | 150 µg/mL (≈ 429 µM) | 300 µg/mL (≈ 859 µM) | 150 µg/mL (≈ 429 µM) | 200 µg/mL (≈ 572 µM) | 150 µg/mL (≈ 429 µM) |
| CN[C@@H]1[C@H](O[C@H]2[C@H](O[C@H]3[C@H](O)[C@@H](O)[C@H](N=C(N)N)[C@@H](O)[C@@H]3N=C(N)N)O[C@@H](C)[C@]2(O)C=O)O[C@@H](CO)[C@H](O)[C@H]1O [STREPTOMYCIN] | 200 µg/mL (≈ 344 µM) | 100 µg/mL (≈ 172 µM) | 300 µg/mL (≈ 516 µM) | 150 µg/mL (≈ 258 µM) | 200 µg/mL (≈ 344 µM) | 100 µg/mL (≈ 172 µM) | 100 µg/mL (≈ 172 µM) | 50 µg/mL (≈ 86 µM) | – | 100 µg/mL (≈ 172 µM) | 200 µg/mL (≈ 344 µM) | 100 µg/mL (≈ 172 µM) | 300 µg/mL (≈ 516 µM) | 150 µg/mL (≈ 258 µM) | 200 µg/mL (≈ 344 µM) | 100 µg/mL (≈ 172 µM) |
